# In US11478558B2, “Prostate-specific membrane antigen targeted high-affinity agents for endoradiotherapy of prostate cancer” (The Johns Hopkins University, priority 2017, dated 2022):
# Columns and labels:
# [1] = Octanol/water partition coefficient; assay type: physicochemical; settings: Table 1
# [2] = target: PSMA (Homo sapiens (Human), UniProt Q04609); test: PSMA binding affinity
# [3] = system: PSMA(+) PC3 PIP cells; test: Cell uptake, cell surface binding and internalization in PSMA(+) PC3 PIP cells; assay type: cell-based, human
# [4] = system: PSMA(−) PC3 flu cells; test: Cell uptake in PSMA(−) PC3 flu cells; assay type: cell-based, human
# [5] = system: PSMA+ PC3 PIP tumors; test: Radiopharmaceutical therapy in PC3 PIP flank tumor growth delay model; assay type: in vivo, NOD/SCID mice
# Method: A pilot treatment study using NOD/SCID mice (n=10 per group) bearing PSMA+ PC3 PIP tumors with a single intravenous dose of 111 MBq (3 mCi) of agents ^177Lu-PSMA-617, ^177Lu-1, ^177Lu-3 and ^177Lu-5 and the control group (with saline treatment) were performed (Table 8). Volume of the all control group mice reached >5-fold of their initial tumor volume within 14 days. Mouse euthanized for treated group within 4 weeks of post-injection was mainly due to sudden body weight loss and not related to tumor growth. […] The difference among treatment groups was statistically significant (P=0.002) by the log-rank test compared to the untreated group. […] After 8-weeks, three mice from each treated group were used for detailed blood analysis and necropsy study. All animals underwent radiotherapy study had normal creatinine (0.3-0.4 mg/dL) and blood urea nitrogen levels. […] Additionally, a significant lowering of platelet for all three treated mice from ^177Lu-PSMA-617 compared control group and other treated groups.
# Median survival for the ^177Lu-PSMA-617 was 133 days vs. 234 days for ^177Lu-1.
# The remaining treated mice survived tumor-free for 10 months and were evaluated for toxicity.
# Antitumor efficacy studies were performed in PC3 PIP flank tumor growth delay model to evaluate the therapeutic efficacy of a single dose intravenous injection of ^177Lu-L1, ^177Lu-L3, ^177Lu-L5 and ^177Lu-PSMA-617 vs. saline. This was a head-to-head comparison study and same batch of tumor-bearing mice and radioactivity. The study was commenced 14-18 days post-inoculation of the xenografts, when all the mice had tumor volume of about ˜60-85 mm^3 (Table 8). All the living mice were monitored for 8 weeks to monitor the growth delay. Mice body weight and tumor volume were monitored every 3 days throughout the experiment. Endpoint criteria defined by the institute ACUC was weight loss≥15%, a tumor volume>1800 mm^3, active ulceration of the tumor or abnormal behavior indicating pain or unease. After 8-weeks, three mice from each group were submitted for detail necropsy and blood analysis. Mice group treated with ^177Lu-1 and ^177Lu-PSMA-617 were continued to monitor until the endpoint. These definitions were also used for Kaplan-Meier analysis. The probability of reaching 5 times the initial tumor volume was characterized using Kaplan-Meier curves, and comparison was performed using the log-rank test. The formula used for calculation of tumor volume was V=width^2×length/2. Toxicity of the ^177Lu-treatment groups after 8-weeks and in healthy CD-1 (n=3) mice treated with 111 MBq was evaluated by pathologic examination at the Johns Hopkins Pathology Core facility with serum metabolic panel, blood counts, and full necropsy including detailed histopathology of kidneys, salivary glands and lacrimal glands.
# [6] = Blood analysis and necropsy after radiotherapy; assay type: in vivo, NOD/SCID mice; settings: one-year post-treatment in tumor-free mice, 111 MBq
# [7] = system: PSMA+ PC3 PIP cells; test: Clonogenic cell survival assay in PSMA+ PC3 PIP cells; assay type: cell-based, human
# [8] = system: PSMA(+) PC3 PIP and PSMA(−) PC3 flu tumor xenografts; test: Biodistribution of 177Lu compounds (Example 5)
# [9] = system: PSMA(+) tumors and normal tissues; test: Self-blocking (receptor blockade) biodistribution; assay type: in vivo, mouse; settings: at 10-fold kidney blockade
# Text: Development of receptor blockade for normal organs. The blocking effect of 1 was quantified in normal tissues using ^177Lu-1. A drastic reduction of renal uptake was observed while maintaining high uptake in PSMA(+) tumors (FIG. 12). […] Blocking strategies. […] These daughters, once formed, are unlikely to associate with the chelate construct due to high atomic recoil-energy as a result of α-decay. Without wishing to be bound to any one particular theory, it is thought that acute salivary gland toxicity caused by ^225Ac-PSMA-617 is most likely due to PSMA-based internalization of the agent followed by daughter release in striated duct or acini. Both biodistribution data and α-camera imaging will be used to interpret the data. Different pharmacologic agents will be evaluated to avoid renal and salivary gland radio toxicity. […]
# Sequence of PSMA (Q04609 whole entry): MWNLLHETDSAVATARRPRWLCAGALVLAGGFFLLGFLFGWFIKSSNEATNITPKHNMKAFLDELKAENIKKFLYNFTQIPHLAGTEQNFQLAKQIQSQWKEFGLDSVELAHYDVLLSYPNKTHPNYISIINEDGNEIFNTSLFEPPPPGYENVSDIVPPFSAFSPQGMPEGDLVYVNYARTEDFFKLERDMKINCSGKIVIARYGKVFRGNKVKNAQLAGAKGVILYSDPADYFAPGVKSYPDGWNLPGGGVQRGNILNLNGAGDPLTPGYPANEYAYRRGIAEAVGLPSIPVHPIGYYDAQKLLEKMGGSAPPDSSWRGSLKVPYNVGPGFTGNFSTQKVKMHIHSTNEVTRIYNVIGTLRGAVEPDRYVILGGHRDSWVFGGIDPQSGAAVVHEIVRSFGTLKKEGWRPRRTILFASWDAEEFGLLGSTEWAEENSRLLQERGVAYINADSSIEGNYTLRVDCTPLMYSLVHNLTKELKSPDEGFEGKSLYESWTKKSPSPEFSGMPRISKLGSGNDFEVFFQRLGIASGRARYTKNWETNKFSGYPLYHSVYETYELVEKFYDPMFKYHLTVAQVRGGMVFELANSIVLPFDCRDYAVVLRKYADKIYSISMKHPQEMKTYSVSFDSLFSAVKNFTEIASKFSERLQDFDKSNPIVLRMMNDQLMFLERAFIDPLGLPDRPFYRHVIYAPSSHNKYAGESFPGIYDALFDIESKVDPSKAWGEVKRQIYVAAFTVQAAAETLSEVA
smiles,measurement,setting,value
"O=C(O)CC[C@H](NC(=O)N[C@@H](CCCCN(Cc1ccc(Br)cc1)C(=O)CCCCNC(=S)Nc1ccc(CC2CN(CC(=O)O)CCN(CC(=O)O)CCN(CC(=O)O)CCN2CC(=O)O)cc1)C(=O)O)C(=O)O (stereo partly drawn) [Ligand 1, (13S,17S)-8-(4-bromobenzyl)-7,15-dioxo-1-((4-((1,4,7,10-tetrakis(carboxymethyl)-1,4,7,10-tetraazacyclododecan-2-yl)methyl)phenyl)amino)-1-thioxo-2,8,14,16-tetraazanonadecane-13,17,19-tricarboxylic acid]",LogPoct/water,[1],−3.0
"O=C(O)CC[C@H](NC(=O)N[C@@H](CCCCN(Cc1ccc(Br)cc1)C(=O)CCCCNC(=O)CN1CCN(CC(=O)O)CCN(CC(=O)O)CCN(CC(=O)O)CC1)C(=O)O)C(=O)O [Ligand 2, (14S,18S)-9-(4-Bromobenzyl)-2,8,16-trioxo-1-(4,7,10-tris(carboxymethyl)-1,4,7,10-tetraazacyclododecan-1-yl)-3,9,15,17-tetraazaicosane-14,18,20-tricarboxylic acid]",IC50,[2]; Table 1,0.64 nM
same,Ki,[2]; Table 1,1.28 nM
same,LogPoct/water,[1],−3.53
"O=C(O)CC[C@H](NC(=O)N[C@@H](CCCCNC(=O)CCCCNC(=S)Nc1ccc(CC2CN(CC(=O)O)CCN(CC(=O)O)CCN(CC(=O)O)CCN2CC(=O)O)cc1)C(=O)O)C(=O)O (stereo partly drawn) [Ligand 3, (13S,17S)-7,15-dioxo-1-((4-((1,4,7,10-tetrakis(carboxymethyl)-1,4,7,10-tetraazacyclododecan-2-yl)methyl)phenyl)amino)-1-thioxo-2,8,14,16-tetraazanonadecane-13,17,19-tricarboxylic acid]",IC50,[2]; Table 1,2.16 nM
same,Ki,[2]; Table 1,0.43 nM
same,LogPoct/water,[1],−3.2
"O=C(O)CC[C@H](NC(=O)N[C@@H](CCCCN(Cc1ccc(Br)cc1)C(=O)CCCCCCC(=O)NCCCCNC(=O)c1ccc(CNC(=O)CN2CCN(CC(=O)O)CCN(CC(=O)O)CCN(CC(=O)O)CC2)cc1)C(=O)O)C(=O)O [Ligand L5, (21S,25S)-16-(4-Bromobenzyl)-1,8,15,23-tetraoxo-1-(4-((2-(4,7,10-tris(carboxymethyl)-1,4,7,10-tetraazacyclododecan-1-yl)acetamido)methyl)phenyl)-2,7,16,22,24-pentaazaheptacosane-21,25,27-tricarboxylic acid]",Ki,"[2]; Table 6, given as range",0.46 to 0.63 nM
same,Specific Cell Surface Binding,[3],36.65 ± 0.50 % IA/10^6 cells
same,specific internalization,[3],22.03 ± 0.60 % IA/10^6 cells
"O=C(O)CC[C@H](NC(=O)N[C@@H](CCCCN(Cc1ccc(Br)cc1)C(=O)CCCCNC(=S)Nc1ccc(CC2CN(CC(=O)O)CCN(CC(=O)O)CCN(CC(=O)O)CCN2CC(=O)O)cc1)C(=O)O)C(=O)O (stereo partly drawn) [Ligand L8, (13S,17S)-8-(4-bromobenzyl)-7,15-dioxo-1-((4-((1,4,7,10-tetrakis(carboxymethyl)-1,4,7,10-tetraazacyclododecan-2-yl)methyl)phenyl)amino)-1-thioxo-2,8,14,16-tetraazanonadecane-13,17,19-tricarboxylic acid]",Ki,"[2]; Table 6, given as range",0.08 to 0.16 nM
same,specific internalization,[3],20.06 % IA/10^6 cells
"O=C(O)CC[C@H](NC(=O)N[C@@H](CCCCN(Cc1ccc(Br)cc1)C(=O)CCCCNC(=O)CCC(C(=O)O)N1CCN(CC(=O)O)CCN(CC(=O)O)CCN(CC(=O)O)CC1)C(=O)O)C(=O)O (stereo partly drawn) [Ligand L9, (3S,7S)-12-(4-Bromobenzyl)-5,13,19-trioxo-22-(4,7,10-tris(carboxymethyl)-1,4,7,10-tetraazacyclododecan-1-yl)-4,6,12,18-tetraazadocosane-1,3,7,22-tetracarboxylic acid]",Ki,"[2]; Table 6, given as range",0.02 to 0.05 nM
same,specific internalization,[3],7.80 % IA/10^6 cells
O=C([O-])CN1CCN(CC(=O)[O-])CCN(CC(=O)NCCCCC(=O)N(CCCC[C@H](NC(=O)N[C@@H](CCC(=O)O)C(=O)O)C(=O)O)Cc2ccc(Br)cc2)CCN(CC(=O)[O-])CC1.[177Lu+3] [^177Lu-L1],Cell uptake PC3 PIP,[3]; 1 h,32.1 ± 0.1 % incubated dose per 1 x 10^6 cells
same,PC3 PIP cell Int (internalization),[3]; 1 h,18.8 ± 0.8 % incubated dose per 1 x 10^6 cells
same,Blockade PC3 PIP,"[3]; 1 h, ZJ43 10 μM",0.2 ± 0.0 % incubated dose per 1 x 10^6 cells
same,total uptake within the PSMA(+) PC3 PIP cells,[3]; 1 h to 24 h,~30 % of the incubated dose
same,Cell uptake PC3 PIP,[3]; 2 h,36.7 ± 0.5 % incubated dose per 1 x 10^6 cells
same,"PC3 PIP, line without name (position of cell internalization)",[3]; 2 h,22.0 ± 0.6 % incubated dose per 1 x 10^6 cells
same,Cell uptake PC3 PIP,[3]; 4 h,39.1 ± 0.5 % incubated dose per 1 x 10^6 cells
same,PC3 PIP cell int (internalization),[3]; 4 h,26.6 ± 1.2 % incubated dose per 1 x 10^6 cells
same,Cell uptake PC3 PIP,[3]; 24 h,46.2 ± 0.2 % incubated dose per 1 x 10^6 cells
same,PC3 PIP cell int (internalization),[3]; 24 h,24.6 ± 0.2 % incubated dose per 1 x 10^6 cells
same,Cell uptake PC3 flu,[4]; 1 h,0.2 ± 0.0 % incubated dose per 1 x 10^6 cells
same,Cell uptake PC3 flu,[4]; 2 h,0.1 ± 0.0 % incubated dose per 1 x 10^6 cells
same,Cell uptake PC3 flu,[4]; 4 h,0.1 ± 0.0 % incubated dose per 1 x 10^6 cells
same,Cell uptake PC3 flu,[4]; 24 h,0.2 ± 0.1 % incubated dose per 1 x 10^6 cells
same,Median survival After 8 weeks post-treatment,[5]; 111 MBq,Not reached
same,Mouse death (number of mice),"[5]; 111 MBq, up to week 8 post-treatment",Death 1
same,Tumor disappear (number of mice),"[5]; 111 MBq, week 8 post-treatment",disappear 7
same,Average final body weight,[5]; single i.v. dose 111 MBq (3 mCi),26.1 ± 1.4 gram
same,radiation nephropathy at necropsy,[6],did not reveal any radiation nephropathy
O=C([O-])CN1CCN(CC(=O)[O-])CCN(CC(=O)O)C(Cc2ccc(NC(=S)NCCCCC(=O)N(CCCC[C@H](NC(=O)N[C@@H](CCC(=O)O)C(=O)O)C(=O)O)Cc3ccc(Br)cc3)cc2)CN(CC(=O)[O-])CC1.[177Lu+3] (stereo partly drawn) [^177Lu-L8],fold higher internalization compared to 177Lu-7,[3]; all time-points up to 24 h,> 1.5 fold
same,D0 (37% survival),[7]; 48 h incubation,0.3-0.6 μCi/mL
same,Cell surviving fraction,[7]; incubated for 2 h and 24 h,> 0.8
same,mice with tumor growth with relative volume>5 after 8 weeks,"[5]; 111 MBq, n=10",only two mice
same,tumor-free survival of remaining treated mice,"[5]; 111 MBq, n=10",10 months
same,unexpected death of mice (used for SPECT/CT imaging),"[5]; 111 MBq, n=10",three mice
same,PSMA(+) PC3 PIP tumor uptake,[8]; 2 h,55.4±7.2 % ID/g
same,PSMA(+) PC3 PIP tumor uptake,[8]; 24 h post-injection,40.6±7.0 % ID/g
same,PSMA(+) PC3 PIP tumor uptake,[8]; 48 h,27.0±7.0 % ID/g
same,PSMA(+) PC3 PIP tumor uptake,"[8]; fourth time point, time not given",24.9±2.3 % ID/g
O=C([O-])CN1CCN(CC(=O)[O-])CCN(C(CCC(=O)NCCCCC(=O)N(CCCC[C@H](NC(=O)N[C@@H](CCC(=O)O)C(=O)O)C(=O)O)Cc2ccc(Br)cc2)C(=O)O)CCN(CC(=O)[O-])CC1.[177Lu+3] (stereo partly drawn) [^177Lu-L9],cell uptake and internalization,[3],~70%
same,effect of self-blockade on tumor uptake,[9],significant tumor uptake blockade
same,Kidney uptake,[8]; 2 h,149.7±32.0 % ID/g
same,Kidney uptake,[8]; 24 h (so in the source),5.9±2.7 % ID/g
same,fold renal clearance,[8]; within 24 h,~30 fold
